Patent US12178837B2, “Composition for skin-whitening or preventing or improving skin wrinkles comprising green tea extract which has modified amounts of ingredients” (AMOREPACIFIC CORPORATION, priority 2019, dated 2024)

Tested on: MMP-1 (matrix metalloproteinase-1)
Assay: MMP-1 inhibition activity: ELISA of MMP-1 produced by aged human dermal fibroblasts
Assay type: cell-based
Conditions: EGCG + GCG total 3 μg/ml at the given weight ratio
Experimental: The evaluation on MMP-1 inhibition activity was conducted in order to verify the effects of the green tea extracts of Samples 1 and 2 of Example 1 in inhibiting the production of MMP-1, which is skin tissue breakdown enzyme, in human skin fibroblast of aged human skin and in inhibiting the production of MMP-1 according to the weight ratio of EGCG and GCG, and the amount of GCG. To be specific, the evaluation was conducted through the following steps.
Normal human dermal fibroblast (NHDF; Lonza, Switzerland) was cultured in a DMEM medium (Dulbecco's modified Eagle's Medium, Gibco 1210-0038) comprising 10% of fetal bovine serum, and the culturing was all performed in a 37° C., 5% CO2 culture medium. Cells that had 6-9 sub-culture frequencies were used as young cells, and aged dermal fibroblasts were obtained by sub-culturing 37 times in such a manner that the number of cells was calculated for every sub-culture and then ⅕ of the total number of cells were newly cultured. The aged dermal fibroblasts were treated with EGCG and GCG depending on the ratio of EGCG:GCG and the concentration of GCG, or treated with Sample 1 or Sample 2.
In order to verify the amount of MMP-1 produced, the enzyme-linked immunosorbent assay (ELISA) method was used (Amersham, USA). The culture medium of the cells treated with the samples at the step 1-1 was collected and the supernatant was isolated by centrifuging at 1000×g, and then the culture medium was put into a 96-well plate coated with an MMP-1 antibody, and then a secondary antibody (horse reddish peroxidase, HRP) was reacted at room temperature for 1 hour, and washed with 100 μL PBS. The amount of MMP-1 produced was confirmed by measuring absorbance at a 490 nm wavelength after reaction and confirming its degree of color formation using a TMB substrate solution (Pierce, USA), and the MMP-1 inhibition activity (%) was calculated using the following equation.
MMP-1 inhibition activity (%)=(O.D. of the group treated with the sample at 490 nm/O.D. of the group not treated with sample at 490 nm)×100

Compound	MMP-1 inhibition activity (%) Processed after 24 hours [%]	MMP-1 inhibition activity (%) Processed immediately [%]
(−)-epigallocatechin gallate [EGCG]	6 ± 1.0	56 ± 9.7
O=C(O[C@@H]1Cc2c(O)cc(O)cc2O[C@H]1c1cc(O)c(O)c(O)c1)c1cc(O)c(O)c(O)c1 [GCG, (−)-gallocatechin gallate]	10 ± 1.0	55 ± 9.2
